Each block holds one molecule with its values, some of them ahead of it.
Assays:
[1] = target: T1, 8R,11S-linoleate diol synthase (8R,11S-LDS; PC_1) (Penicillium rubens, UniProt B6HQI5); assay: O2 uptake, Clark-type oxygen monitor, Hanes-Woolf plot; format: biochemical; conditions: DOX activity (N-terminal dioxygenase domain of the whole enzyme); co-substrate O2; 50 mM EPPS pH 8.0, 25°C
T1 construct: gene Pc22g06980; full length, 1,074 residues, C-terminal His6 (pET-21a), E. coli ER2566, HisTrap purified; calculated 120,998 Da; N-terminal DOX domain 1-669, C-terminal P450 hydroperoxide isomerase domain 670-1074

[2] = target: T1, 8R,11S-linoleate diol synthase (8R,11S-LDS; PC_1); assay: UV-visible spectroscopy, heme/protein absorption ratio (A410/A280); format: binding; conditions: heme occupancy of the purified enzyme
[3] = target: T1, 8R,11S-linoleate diol synthase (8R,11S-LDS; PC_1); assay: HPLC of dihydroxy fatty acid product, Hanes-Woolf plot; format: biochemical; conditions: whole enzyme activity: overall conversion to dihydroxy fatty acid by sequential DOX and hydroperoxide isomerase domains; 25°C, 50 mM EPPS pH 8.0
[4] = substrate: CCCCCC/C=C\CCCCCCCC(=O)O; assay: O2 uptake, Clark-type oxygen monitor, Hanes-Woolf plot; format: biochemical, Penicillium rubens; conditions: DOX activity (N-terminal dioxygenase domain of the whole enzyme), co-substrate O2, 50 mM EPPS pH 8.0, 25°C
Text: O2 uptake, Clark-type oxygen monitor, Hanes-Woolf plot on 8R,11S-linoleate diol synthase (8R,11S-LDS; PC_1)

Molecule: C=CC1=C(C)C2=Cc3c(C=C)c(C)c4[n]3[Fe][n]3c(c(C)c(CCC(=O)O)c3=CC3=NC(=C4)C(C)=C3CCC(=O)O)=CC1=N2 [heme]
UV-visible spectroscopy, heme/protein absorption ratio (A410/A280) [2]: Heme occupancy of the wild-type and H999A, C1001S, and H999A-C1001S variant enzymes

B1: 8R,11S-linoleate diol synthase (8R,11S-LDS; PC_1) (Penicillium rubens Wisconsin 54-1255) (protein)
chain: MAEKESNSSGKIAQLEQVVAAALRPLPTQTGDGSYVQEPTVTGLAKDLLNFDLKDAKTLADMAKTAVTGKAVNDRDYIMERVIQLASGLPSTSRNGKELTNTFLTQLWGDLEHPPISYLGRDAAYRKADGSGNNTFWPQIGAANTPYARSVRPKTMQPVALPEPEALFDSLLARKDFKEHPNKISSVLFHLASIIIHDLFQTDPRDQTKSLTSSYLDLSPLYGNNQKEQDTVRAFKDGKLKPDCFSTKRVLGFPPGVGVILIMFNRFHNSVVTQLAAINEGGRFTKPDESNAEAYATWDNDLFQTARLVTCGLYINIILKDYVRTILNVNRTDSLWSLDPRADIRDGLLGEAPAQATGNQVSAEFNLVYRWHSCVSSRDEKWSEDLYKEIFDGKDPKEISMQQFTGGLRQWESKLPADPQERPFAKLQRQADGKFDDNDLVKIFEESVEDPAGAFGALNVPDVFRGIEVLGIKQARSWNLATLNEFRQYFGLAAYQTFEEINPDPYVANQLKHFYDHPDLVELYPGLVVEETKQAMTPGSGLCTNFTTSRAILSDAVALVRGDRFYTVDFTPKHLTNWAFNEINNDVSVDGGQVFYKLILKAFPNHFRGDSVYAHFPLVVPDENKKILTSLGKVKTYSFDRPFYKAPPLFINSHSACTKILKDQEGFKVVWGEKIQFLMENSGRPYGRDFALSGDLPANAASRKMIGAALHRDKWESEVKAFYEDITLKLLERNSFKVAGVNQVDIVRDVAVLAQVNFCANVFSLSLKTESNPRGVFSEQELYQILAVIFASIFYDVDVSKSLQLCQTARNVAQQLGELTLANVELVAKTGFISNLVNRLHRHDILSEYGIHMIQRLLDSQLPVKDVVWSHILPTAGALVANQGQLFSQCIDYYLSEEAAEHLAEIQRLSREDTPEADELLVRYFMEGARLRCSVALPRFATKPTVVDDNGKRVTLKAGQEIICNLVVAGRDPVAFPDPDKVRLDRDMSLYTHFGFGPHECLGVKMCPLALSTMLKVLGRLDNVRRAPGPQGHLKRLDGLGGIAMYMDAEHSSFSPFPMTMKIQWDGDLPARRE
notes: full length, 1,074 residues, C-terminal His6 (pET-21a), E. coli ER2566, HisTrap purified; calculated 120,998 Da; N-terminal DOX domain 1-669, C-terminal P450 hydroperoxide isomerase domain 670-1074
Km [4]: 20.0 ± 0.5 µM
kcat [4]: 81.8 ± 3.77 s⁻¹
kcat/Km [4]: 4.32e+06 M⁻¹ s⁻¹

Continued, values first:

Km [1]: 34.3 ± 1.2 µM
Molecule: CCCCCCCC/C=C\CCCCCCCC(=O)O [oleic acid]

Km [1]: 69.9 ± 0.3 µM
Km [3]: 138 ± 3.2 µM
Molecule: CC/C=C\C/C=C\C/C=C\CCCCCCCC(=O)O [α-linolenic acid]

Km [1]: 18.9 ± 0.6 µM
Km [3]: 86.1 ± 1.8 µM
Molecule: CCCCC/C=C\C/C=C\CCCCCCCC(=O)O [linoleic acid]

Source: paper PMC4727417, “Characterization of a novel 8R,11S-linoleate diol synthase from Penicillium chrysogenum by identification of its enzymatic products” (Journal of Lipid Research, 2016)
